Here are results for 35 compounds from patent publication US6825192B1, “Heterodiazinone derivatives” (Eisai Co., Ltd., priority 1999, dated 2004).

Where a name gives a salt, the structure may show the parent alone.

What is called IC50 is the concentration needed to halve the response being measured. As a reminder, the melting point is the temperature of the solid-liquid transition.

The test system of one data set is male ddy mice. Description: Inhibitory action on AMPA-inducing spasm. In kind it is in vivo. The following applies: intravenous, 5 minutes before 1.5 nmol AMPA into the ventricle. How it is done:
A test compound or its solvent only was intravenously injected into 4-week-old male ddy mice, and 5 minutes later, 1.5 nmol AMPA was administered into the ventricle thereby inducing spasm. The action of the test chemical was judged by the presence or absence of spasm, and its dose causing 80% or more inhibition was regarded as an effective dose.
As to `Cl.O=C1COC(c2ccccc2OCCN2CCOCC2)=NN1c1ccccc1Br` [Example 68, 2-{2-[2-(4-Morpholinyl)ethoxy]phenyl}-4-(2-bromophenyl)-4H-1,3,4-oxadiazine-5(6H)-one hydrochloride], the “effective dose (dose causing 80% or more inhibition of spasm)” value worked out at 30 mg/kg.
For `O=C1COC(c2ncccc2O)=NN1c1ccccc1` [Example 14, 2-(3-Hydroxy-2-pyridyl)-4-phenyl-4H-1,3,4-oxadiazine-5(6H)-one], the “effective dose (dose causing 80% or more inhibition of spasm)” value was determined as 10 mg/kg.
On the same count and under the same terms, the figure for `N#Cc1ccccc1N1N=C(c2ccccc2)OCC1=O` [Example 36, 2-Phenyl-4-(2-cyanoeyphenyl)-4H-1,3,4-oxadiazine-5(6H)-one] is 10 mg/kg; for `CN(C)CCOc1ccccc1C1=NN(c2ccccc2Br)C(=O)CO1.Cl` [Example 54, 2-[2-(2-Dimethylamino)ethoxyphenyl]-4-(2-bromophenyl)-4H-1,3,4-oxadiazine-5(6H)-one hydrochloride] it is 30 mg/kg.

The subject of a further data set is AMPA receptor. Description: Inhibitory action on AMPA-inducing inflow of calcium into nerve cells (Fura2-AM). The format is cell-based. The following applies: rat cerebral cortex nerve cells on astrocytes, 1 μM MK-801, stimulated by 2 μM AMPA, fluorescence 340/380 nm. How it is done:
The cerebral cortex was excised from the brain of a rat on day 18 after birth and treated with trypsin and DNase, whereby the cells were dispersed. The cells were allowed to float on DMEM containing 10% serum, inoculated into a culture bottle, and their astrocytes were grown. The astrocytes were re-dispersed with trypsin and inoculated onto each well on a 96-well plate. After it was confirmed that the bottom of each well was completely covered with the astrocytes after culture for 1 week, cerebral cortex nerve cells dispersed in the same manner as above were inoculated thereon. After 24 hours, the medium was exchanged with fresh one, and after culture for further 1 week, the medium was exchanged with a medium containing 1 μM MK-801.
The inflow of calcium into the cells was measured using Fura2-AM that is a calcium-sensitive fluorescent pigment. By treating the cells with a Fura2-AM-containing medium for 1 hour, Fura2-AM was incorporated into the cells, and the medium was exchanged with a Tyrode solution containing 1 μM MK-801. After a test compound was added, the cells were stimulated by 2 μM AMPA. The change in the amount of calcium flowing into the cells was measured as a change in the fluorescence intensity at wavelengths of 340/380 nm. The effect of a test compound was evaluated where the reaction caused by AMPA added to the Tyrode solution free of the test compound was used as the control.
For the compound `Cl.O=C1COC(c2ccccc2OCCN2CCOCC2)=NN1c1ccccc1Br` [Example 68, 2-{2-[2-(4-Morpholinyl)ethoxy]phenyl}-4-(2-bromophenyl)-4H-1,3,4-oxadiazine-5(6H)-one hydrochloride], the half-maximal inhibitory concentration (IC50) came out at 11.1 µM.
On the same count and under the same terms, next, `O=C1COC(c2ncccc2O)=NN1c1ccccc1` [Example 14, 2-(3-Hydroxy-2-pyridyl)-4-phenyl-4H-1,3,4-oxadiazine-5(6H)-one]: 1.56 µM; `N#Cc1ccccc1N1N=C(c2ccccc2)OCC1=O` [Example 36, 2-Phenyl-4-(2-cyanoeyphenyl)-4H-1,3,4-oxadiazine-5(6H)-one]: 2.28 µM; `O=C1COC(c2ccccc2)=NN1C1CCCCC1` [Example 27, 2-Phenyl-4-cyclohexyl-4H-1,3,4-oxadiazine-5(6H)-one]: 33.1 µM.
The same measure, in the same setting: the figure for `O=C1COC(c2ccccc2O)=NN1c1ccccc1Br` [Example 48, 2-(2-hydroxyphenyl)-4-(2-bromophenyl)-4H-1,3,4-oxadiazine-5(6H)-one] is 1.29 µM.
On the same count and under the same terms, the figure for `O=C1COC(c2ccccn2)=NN1c1ccccc1Br` [Example 33, 2-(2-Pyridyl)-4-(2-bromophenyl)-4H-1,3,4-oxadiazine-5(6H)-one] is 4.28 µM; for `COc1ccccc1C1=NN(c2ccccc2Br)C(=O)CO1` [Example 17, 2-(2-Methoxyphenyl)-4-(2-bromophenyl)-4H-1,3,4-oxadiazine-5(6H)-one] it is 5.83 µM.
Regarding `O=C1COC(c2ccccc2)=NN1c1ccccc1Cl` [Example 100, 2-Phenyl-4-(2-chlorophenyl)-4H-1,3,4-oxadiazine-5(6)-one], the IC50 amounted to 0.8 µM.
The same measure, in the same setting: the figure for `O=C1COC(c2ccccc2)=NN1c1ccccc1CO` [Example 41, 2-Phenyl-4-(2-hydroxymethylphenyl)-4H-1,3,4-oxadiazine-5(6H)-one] is 53.3 µM.
`CN(C)CCOc1ccccc1C1=NN(c2ccccc2Br)C(=O)CO1.Cl` [Example 54, 2-[2-(2-Dimethylamino)ethoxyphenyl]-4-(2-bromophenyl)-4H-1,3,4-oxadiazine-5(6H)-one hydrochloride]: the IC50 worked out at 4.14 µM.
As to `O=C1COC(c2ccncc2)=NN1c1ccccc1` [Example 94, 2-(4-Pyridyl)-4-phenyl-4H-1,3,4-oxadiazine-5(6H)-one hydrochloride], the IC50 was 98.7 µM.
Still for that read-out and setting: the figure for `CC(c1ccncc1)N1N=C(c2ccccc2)OCC1=O` (stereo not shown) [Example 89, 2-Phenyl-4-[1-(4-pyridyl)ethyl]-4H-1,3,4-oxadiazine-5(6H)-one oxalate] is 54 µM.
As to `N#Cc1ncccc1N1N=C(c2ccccc2)OCC1=O` [Example 42, 2-Phenyl-4-(2-cyano-3-pyridyl)-4H-1,3,4-oxadiazine-5(6H)-one hydrochloride], the IC50 was determined as 3.13 µM.
`N#Cc1cccc(N2N=C(c3ccccc3)OCC2=O)c1` [Example 46, 2-Phenyl-4-(3-cyanophenyl)-4H-1,3,4-oxadiazine-5(6H)-one]: the IC50 stood at 13.1 µM.
Regarding `COc1ccccc1C1=NN(c2ccccc2F)C(=O)CO1` [Example 26, 2-(2-Methoxyphenyl)-4-(2-fluorophenyl)-4H-1,3,4-oxadiazine-5(6H)-one], the IC50 turned out to be 10.8 µM.
Take `O=C1COC(c2ccc[nH]2)=NN1c1ccccc1` [Example 6, 2-(2-Pyrrolyl)-4-phenyl-4H-1,3,4-oxadiazine-5(6H)-one]: the IC50 worked out at 48 µM.
The same measure, in the same setting: next, `O=C1COC(c2ccccc2)=NN1c1ccccc1[N+](=O)[O-]` [Example 37, 2-Phenyl-4-(2-nitrophenyl)-4H-1,3,4-oxadiazine-5(6H)-one]: 3.94 µM; `O=C(Nc1ccccn1)C1=NN(c2ccccc2)C(=O)CO1` [Example 95, N-(2-Pyridyl)-[4-phenyl-4H-1,3,4-oxadiazine-5(6H)-one-2-yl]carboxamide hydrochloride]: 48.2 µM; `O=C1COC(c2ccccc2OCc2ccncc2)=NN1c1ccccc1` [Example 55, 2-[2-(4-Pyridyl)methoxyphenyl]-4-phenyl-4H-1,3,4-oxadiazine-5(6H)-one]: 10.5 µM.
The same measure, in the same setting: next, `COc1ccccc1C1=NN(C2CCCCC2)C(=O)CO1` [Example 28, 2-(2-Methoxyphenyl)-4-cyclohexyl-4H-1,3,4-oxadiazine-5(6H)-one]: 25.2 µM; `O=C1COC(c2ccccc2)=NN1c1cccs1` [Example 43, 2-Phenyl-4-(2-thienyl)-4H-1,3,4-oxadiazine-5(6H)-one]: 25.3 µM.
Same read-out and setting: the figure for `O=C1COC(c2ccccc2)=NN1c1ccccc1Br` [Example 30, 2-Phenyl-4-(2-bromophenyl)-4H-1,3,4-oxadiazine-5(6H)-one] is 1.73 µM.
Regarding `O=C1COC(c2ccccc2OCCCN2CCCCC2)=NN1c1ccccc1` [Example 63, 2-{2-[3-(1-Piperidinyl)propoxy]phenyl}-4-phenyl-4H-1,3,4-oxadiazine-5(6H)-one hydrochloride], the IC50 came to 24.7 µM.
The same measure, in the same setting: next, `O=C1COC(c2ccccc2)=NN1c1c(Cl)cccc1Cl` [Example 101, 2-Phenyl-4-(2,6-dichlorophenyl)-4H-1,3,4-oxadiazine-5(6)-one]: 3.4 µM.
Same read-out and setting: next, `O=C1COC(c2ccccc2OCCN2CCOCC2)=NN1C1CCCCC1` [Example 69, 2-{2-[2-(4-Morpholinyl)ethoxy]phenyl}-4-cyclohexyl-4H-1,3,4-oxadiazine-5(6H)-one hydrochloride]: 68.7 µM.
Still for that read-out and setting: the figure for `O=C1COC(C2CCCCC2)=NN1c1ccccc1` [Example 22, 2-Cyclohexyl-4-phenyl-4H-1,3,4-oxadiazine-5(6H)-one] is 67.3 µM; for `CN(C)CCOc1ccccc1C1=NN(c2ccccc2F)C(=O)CO1` [Example 66, 2-[2-(2-Dimethylaminoethoxy)phenyl]-4-(2-fluorophenyl)-4H-1,3,4-oxadiazine-5(6H)-one hydrochloride] it is 3.54 µM.
Consider `O=C1COC(c2ccccc2OCCN2CCCC2)=NN1c1ccccc1` [Example 60, 2-{2-[2-(1-Pyrrolidinyl)ethoxy]phenyl}-4-phenyl-4H-1,3,4-oxadiazine-5(6H)-one], for which the IC50 was 7.26 µM.
On the same count and under the same terms, the figure for `O=C1COC(c2ccccc2OCCN2CCOCC2)=NN1c1ccc(F)cc1` [Example 70, 2-{2-[2-(4-Morpholinyl)ethoxy]phenyl}-4-(4-fluorophenyl)-4H-1,3,4-oxadiazine-5(6H)-one hydrochloride] is 27.2 µM.
Turning to `O=C1COC(c2ccccn2)=NN1c1ccccc1I` [Example 105, 2-(2-Pyridyl)-4-(2-iodophenyl)-4H-1,3,4-oxadiazine-5(6H)-one], the IC50 was determined as 1.9 µM.
Same read-out and setting: next, `O=C1COC(c2ccccc2OCCN2CCOCC2)=NN1c1ccccc1` [Example 56, 2-{2-[2-(4-Morpholinyl)ethoxy]phenyl}-4-phenyl-4H-1,3,4-oxadiazine-5(6H)-one hydrochloride]: 17.6 µM; `CN(C)CCOc1ccccc1C1=NN(c2ccccc2)C(=O)CO1` [Example 61, 2-[2-(2-Dimethylaminoethoxy)phenyl]-4-phenyl-4H-1,3,4-oxadiazine-5(6H)-one hydrochloride]: 4.61 µM.
Same read-out and setting: the figure for `O=C1COC(c2ccccc2OCCN2CCCCC2)=NN1c1ccccc1` [Example 59, 2-{2-[2-(1-Piperidyl)ethoxy]phenyl}-4-phenyl-4H-1,3,4-oxadiazine-5(6H)-one] is 8.29 µM; for `O=C1COC(c2ccccn2)=NN1c1ccc(F)cc1F` [Example 10, 2-(2-Pyridyl)-4-(2,4-difluorophenyl)-4H-1,3,4-oxadiazine-5(6H)-one hydrochloride] it is 44.2 µM.

Tested on in a further data set: not given
Assay: not given
Conditions: not given
`CN(C)CCOc1ccccc1C1=NN(c2ccccc2Br)C(=O)CO1.Cl` [Example 54, 2-[2-(2-Dimethylamino)ethoxyphenyl]-4-(2-bromophenyl)-4H-1,3,4-oxadiazine-5(6H)-one hydrochloride] yielded a melting point of 169 to 170 °C.
On the same count and under the same terms, the figure for `O=C1COC(c2ccccn2)=NN1c1ccccc1` (as salt: hydrochloride) [Example 1, 2-(2-Pyridyl)-4-phenyl-4H-1,3,4-oxadiazine-5(6H)-one hydrochloride] is 149 to 150 °C.
